# Literature values as cited in patent US20240245628A1, “COMPOSITIONS AND METHODS FOR HEALTH COMPRISING CO-ENZYME Q10” (Bausch + Lomb Ireland Limited, priority 2023, published 2024).
# Settings: at levels as high as 800.0 mg
substance,measurement,value
vitamin E,adverse effects of vitamin E,No adverse effects
